Results: the METLIN SMRT retention time set (Domingo-Almenara et al. 2019)

Test: gradient 5% acetonitrile 3 min, to 50% in 2 min, to 85% in 15 min, held 3 min, 100 µL/min
Details: column: Zorbax Extend-C18 2.1 x 50 mm; eluents: water / acetonitrile, 0.1% formic acid
In short: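 Using water and acetonitrile that each contained 0.1% formic acid, mixtures of ~100 pure standards were separated at 100 μL/min on a Zorbax Extend-C18 column (2.1 × 50 mm, 1.8 μm). The HPLC fed a quadrupole time-of-flight mass spectrometer working in positive and negative ionization mode, with dead and dwell volumes of 40 μL and 900 μL. Data were acquired over 3 months. Retention time was read from computationally picked adduct peaks after manual inspection of each.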

Row | Structure (SMILES) | RP-LC retention time [s]
1 | Cc1ccc(-n2nnc(C(=O)O)c2C)c(F)c1 | 705
2 | CN(C)S(=O)(=O)c1ccc2nc(NC(=O)c3nc4ccccc4s3)sc2c1 | 948
3 | COCC(=O)NCC12CCC=C1N(C)C(=O)CC2 (configuration not stated) | 618
4 | Cc1ccc(CNC(=O)c2cn(C)c3c(c(C)nn3-c3ccc(F)cc3)c2=O)o1 | 803
5 | Cc1ccc(S(=O)(=O)N(C)CC2CCOCC2)c(C)c1 | 896
6 | Cc1ccc(C(C)NC(=O)Cn2cc(-c3noc(-c4cccnc4)n3)nc2C)cc1 (configuration not stated) | 715
7 | COc1ccc(-c2cc(NS(=O)(=O)c3cnc[nH]3)n(C3CCS(=O)(=O)C3)n2)cc1 (configuration not stated) | 649
8 | COc1ncccc1CNS(=O)(=O)c1ccc(C)cc1 | 817
9 | Cc1ccc2nc(-c3ccc(N4CCOCC4)cc3)c(Nc3ccc4c(c3)OCO4)n2c1 | 690
10 | O=C(N[C@H]1C[C@@H]2C[C@H]1CN2C(=O)NCc1cccc(F)c1)c1cccs1 | 738
11 | Cn1cnc(S(=O)(=O)N2CCC(Cc3nncn3-c3ccccc3)CC2)c1 | 629
12 | Cc1ccsc1C(=O)Nc1ccccc1Sc1c(C)c(C)nc2nc(-c3ccccc3)nn12 | 1120
13 | Cc1oc(-c2ccc(OC(C)C)cc2)nc1CSc1nc2ncccc2o1 | 1100
14 | COCCNS(=O)(=O)c1ccc(-c2ccc(C)cc2)cc1 | 890
15 | CCCCN(C)S(=O)(=O)c1cc(-c2nnc(C3CCCC3)o2)co1 | 1060
16 | O=C(NC1CCCCC1)N(Cc1ccccn1)Cc1ccco1 | 635
17 | CC1CCN(C(=O)C2CCN(c3nc4cccnc4s3)CC2)CC1 | 784
18 | Cc1ccc(-c2csc(NC(=O)CSc3nc4c(cc3C#N)CCCC4)n2)cc1 | 1290
19 | Cc1ccc(-c2noc(Cn3ccn(-c4c(C)cccc4C)c(=O)c3=O)n2)cc1C | 1000
20 | NS(=O)(=O)c1ccc(CCNCc2ccc(-c3ccc(Cl)cc3)o2)cc1 | 810
21 | COc1ccc(-c2nc3ccc(Br)cn3c2Nc2ccc(C)cc2)cc1O | 742
22 | CC(C)c1ccc(S(=O)(=O)N2CCC(n3c(-c4ccoc4)nc4cccnc43)C2)cc1 (configuration not stated) | 1010

Row | Structure (SMILES) | RP-LC retention time [s]
23 | O=C(Nc1ccc(-c2ccc3nnc(-c4ccncc4)n3n2)cc1)c1cccc(Cl)c1 | 675
24 | CC(C)CNC(=O)N1CC(c2nc(-c3ccccc3)no2)C2(CCOCC2)C1 (configuration not stated) | 858
25 | CN1C(=O)[C@H]2CN(Cc3cc(F)cc(F)c3)C[C@H]2C1=O | 610
26 | Cc1ccc(-c2noc(Cc3nnc(-c4cccc(Br)c4)o3)n2)cc1C | 1230
27 | Cc1ccc2ncn3c(=O)n(CC(=O)Nc4ccc5c(c4)OCO5)nc3c2c1 | 673
28 | COc1ccc(OC)c(-c2[nH]ncc2CN2CC(F)(F)C[C@H]2CN2CCCCCC2)c1 | 578
29 | N#Cc1ccc(-c2nc(-c3ccc4c(c3)nnn4CCN3CCCCC3)no2)cc1 | 676
30 | Clc1ccc(-c2ccc(CNC3CC3)o2)c(Cl)c1 | 716
31 | COc1ccc(OCc2nc(Cc3nc(-c4cccc(C)c4)oc3C)no2)cc1 | 1160
32 | CCN(CC)CCNC(=O)c1cc(S(=O)(=O)N2CCCCCC2)ccc1Cl | 656
33 | O=C1CC2OCC=C3CN4CC[C@]56c7ccccc7N1C5[C@H]2[C@H]3C[C@H]46 (some centres not stated) | 583
34 | NC(=O)c1cnn(-c2cccc(F)c2)c1-n1cccc1 | 734
35 | CCn1nc(C)n2cc(S(=O)(=O)NCc3ccc(C)o3)cc2c1=O | 815
36 | COCCCNc1nccc(-n2nc(C)cc2C)n1 | 631
37 | Cc1ccc(-c2cc3c(=O)n(Cc4nc(-c5ccc(Cl)cc5)no4)ncn3n2)c(C)c1 | 1320
38 | Cc1cc(C)cc(C(=O)N2CCCC(C(=O)NCCN3CCCC3)C2)c1 (configuration not stated) | 606
39 | CCN(CC)C(=O)c1ccc(C2=CC3(CCNCC3)Oc3cccc(O)c32)cc1 | 725
40 | COc1ccc2[nH]cc(CCNC(=O)Cc3ccc(F)cc3)c2c1 | 790
41 | Cc1nc(NC2=NCN(Cc3cccnc3)CN2)nc2c(C)cccc12 | 592
42 | Cc1ccc(Nc2c(-c3ccc(C)cc3)nc3ccc(Cl)cn23)cc1 | 890
43 | Cc1ccc(NC(=O)C2(C)Oc3cccnc3NC2=O)cc1 (configuration not stated) | 727

Results, then the compound that gave them:

Row | RP-LC retention time [s] | Structure (SMILES)
44 | 878 | O=C(Nc1ncc(Cc2cccc3ccccc23)s1)C1CC1
45 | 962 | O=C(Nc1nccn(-c2ccc3c(c2)CCC3)c1=O)c1ccc(Cl)cc1
46 | 1270 | CCC(C)NS(=O)(=O)c1ccccc1-c1nc(-c2ccc(C)cc2)no1 (configuration not stated)
47 | 784 | COc1cc(NC(=O)CN2C(=O)C(C)(C)c3ccccc32)cc(OC)c1OC
48 | 806 | CC1=C(c2ccc(F)cc2)S(=O)(=O)N=C1N1CCCN(C(=O)Nc2ccccc2)CC1
49 | 703 | COCCNC(=O)c1ccc(CNS(=O)(=O)c2cc(C)ccc2C)cc1
50 | 939 | CCOc1ccc(C(=O)N2CCC3(CC2)C(=O)N(CC)c2ccccc23)cc1OCC
51 | 809 | O=C(CN1C(=O)NC2(CCCCC2)C1=O)Nc1ccc(Cl)cc1F
52 | 850 | CC(C)NC(=O)c1ccc(OCC2CCN(C(=O)c3cc(F)ccc3F)CC2)cc1
53 | 747 | CC(C)CC(=O)N1CCc2c(c(C(=O)N3CCCC(C(=O)Nc4ccccc4)C3)nn2C)C1 (configuration not stated)
54 | 806 | O=c1n(Cc2ccc(F)cc2)nc2c(S(=O)(=O)N3CCCC3)cccn12
55 | 682 | COc1ccc(OC)c(NC(=O)CN2C(=O)COc3ccc(C(=O)N4CCCC4)cc32)c1
56 | 743 | CC(C)CNC(=O)CCC(=O)N1c2ccccc2NC2=C(C(=O)CC(C)(C)C2)C1c1ccco1 (configuration not stated)
57 | 790 | CCc1cc(OCC(=O)N2CCN(c3ccccn3)CC2)nc2c1c(C)nn2-c1ccc(C)cc1
58 | 872 | CCCN(CC(=O)N(Cc1ccco1)CC1CCCO1)C(=O)Cc1ccc(F)cc1 (configuration not stated)
59 | 946 | N#CCCSc1ccccc1NC(=O)c1ccc(S(=O)(=O)N2CCCCCC2)cc1
60 | 847 | O=C(CN1C(=O)CCCc2cc(S(=O)(=O)N3CCCCC3)ccc21)NCc1ccccc1
61 | 597 | CN(C)C(=O)c1ccc2c(c1)nc(CN1CCN(C(=O)c3ccccc3)CC1)n2C
62 | 824 | COc1cccc(CNC(=O)CSc2nccnc2N2CCSCC2)c1OC
63 | 602 | c1ccc(-c2nc(-c3ccc4c(c3)nnn4CCN3CCCCC3)no2)nc1
64 | 683 | O=C(NCc1ccc2c(c1)OCO2)c1nnc2n(c1=O)CCN2c1ccc(F)cc1
65 | 744 | NC(=O)C1CCN(C(=O)Cn2c(-c3cccs3)cc3ccccc32)CC1

Row | RP-LC retention time [s] | Structure (SMILES)
66 | 789 | COc1ccccc1-c1cc(C(=O)N2CCN(c3ccc(=O)n(-c4ccc(F)cc4)n3)CC2)[nH]n1
67 | 810 | COCCOC1CCN(S(=O)(=O)c2ccccc2C)CC1
68 | 1260 | CCC(C)(C)c1ccc(Oc2cccc(C(=O)O)c2)cc1
69 | 736 | COc1ccc(N2CCN(C(=O)Cn3ccc4c(c(C)nn4-c4ccccc4)c3=O)CC2)cc1
70 | 657 | CCC(CN1CCOCC1)NC(=O)c1c2c(cn(-c3ccc(F)cc3)c1=O)C(=O)CC(C)(C)C2 (configuration not stated)
71 | 928 | CCOC(=O)c1c(S(=O)(=O)N2CCC(C(=O)Nc3ccc(C)cc3C)CC2)c(C)n(CC)c1C
72 | 702 | Cc1ccc(N2CC(c3nc(-c4ccc5c(c4)ncn5C)no3)CC2=O)cc1C (configuration not stated)
73 | 637 | COc1ccc(C2C(C(=O)N3CCOCC3)c3cc(OC)c(OC)cc3C(=O)N2C)cc1OC (configuration not stated)
74 | 846 | CCOCCCNC(=O)COc1nc(C)nc2onc(-c3ccccc3)c12
75 | 817 | CCN1CCN(Cc2ccc(C(=O)Nc3ccc(C)c(Oc4ccc5c(c4)CC(=O)N5)c3)cc2C(F)(F)F)CC1
76 | 843 | COc1ccc2nc(C(=O)NCc3ccccc3C)cn2n1
77 | 659 | CCCS(=O)(=O)N1CCC2(CC1)c1[nH]c3ccccc3c1CCN2C
78 | 960 | CCOc1ccc(-c2noc(Cn3c(=O)n(-c4ccccc4C)c(=O)c4sccc43)n2)cc1OC
79 | 572 | COc1ccc(CN2CCC([C@@H]3CNC[C@H]3CO)CC2)cc1Cn1ccnc1
80 | 902 | CCOC(=O)C1=C(C)NC2=C(C(=O)c3ccccc32)C1c1cccc(OC)c1OC (configuration not stated)
81 | 862 | CC(C)NC(=O)c1ccc(OCC2CCCN2C(=O)c2ccc(F)c(F)c2)cc1 (configuration not stated)
82 | 701 | CC1=C(c2ccc(Cl)cc2)S(=O)(=O)N=C1N1CCCN(C(=O)c2cccnc2)CC1
83 | 830 | CCOc1ccc(CC(=O)N2CCC3(CC2)C(=O)N(C)c2ccccc23)cc1OCC
84 | 652 | O=C(c1ccc(S(=O)(=O)c2ccccc2)s1)N1CCN(c2ccccn2)CC1
85 | 768 | COC(=O)c1cnn(-c2ccc(C(=O)N3CCc4ccccc43)cc2)c1N
86 | 765 | CCn1c(SC)nnc1-c1nn(C)c2c1CN(C(=O)c1c(F)cccc1F)CC2
87 | 850 | O=C(NCc1cccc(Br)c1)c1csc(C(=O)N2CCCC2)n1
